Patent US7713994B2 (Wyeth LLC, priority 2005, dated 2010)
Like-named read-outs stand apart in the source and are kept apart here.

How the values were obtained:
[1] = target: T1, cyclin D1/cdk 4 enzyme (Homo sapiens, UniProt P11802); test: CDK4 ELISA kinase assay (phospho-Rb ser 795 detection); format: biochemical
T1 construct: made in house; host or cells: Sf9 insect cells, recombinant baculovirus
In short: (§1)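 Partially purified Sf9-expressed cyclin D1/CDK4, cyclin E/CDK2 or cyclin B/CDK1 phosphorylated plate-bound GST-Rb C-terminal fragment with 200 μM ATP at 30° C for 1 h.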

[2] = target: T2, cyclin E/CDK2 enzyme (Homo sapiens, UniProt P24941); test: CDK2 ELISA kinase assay (phospho-Rb ser 795 detection); format: biochemical
T2 construct: made in house; host or cells: Sf9 insect cells, recombinant baculovirus
In short: as §1

[3] = target: T3, cyclin B/CDK1 enzyme (Homo sapiens, UniProt P06493); test: CDK1 ELISA kinase assay (phospho-Rb ser 795 detection); format: biochemical
T3 construct: purchased New England BioLabs; host or cells: Sf9 insect cells, recombinant baculovirus
In short: as §1

[4] = system: BT474; test: Cytotoxicity assay (SRB), BT474; format: cell-based
In short: (§2)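 Plate cells, let them attach overnight, add compound dilutions in RPMI 1640/5% FBS, and incubate 3 days (BT474 6 days). Then fix with TCA, stain with SRB, dissolve the dye in Tris and read at 540 nm.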

[5] = system: HCT-116; test: Cytotoxicity assay (SRB), HCT-116; format: cell-based; conditions: Homo sapiens, HCT-116, 72 h, HCT116 cells, SRB, read-out: In Vitro Cellular Activity IC50 HCT116
In short: as §2

[6] = system: LoVo; test: Cytotoxicity assay (SRB), LoVo; format: cell-based; conditions: Homo sapiens, LoVo, 72 h, LoVo cells, SRB, read-out: In Vitro Cellular Activity IC50 LOVO
In short: as §2

[7] = system: MCF-7; test: Cytotoxicity assay (SRB), MCF-7; format: cell-based; conditions: Homo sapiens, MCF7, 72 h, MCF-7 cells, SRB, read-out: In Vitro Cellular Activity IC50 MCF-7
In short: as §2

[8] = In Vitro Enzyme Assays, 200 μM ATP, read-out: CDK4 IC50
[9] = In Vitro Enzyme Assays, read-out: CDK2 IC50
[10] = In Vitro Enzyme Assays, read-out: CDK1 IC50
[11] = Homo sapiens, BT-474, 144 h, BT474 cells, SRB, 6 days; read-out: In Vitro Cellular Activity IC50 BT474
[12] = Homo sapiens, BT-474, 144 h, BT474 cells, 6 days, SRB; read-out: In Vitro Cellular Activity IC50 BT474

T1 sequence (P11802 whole entry, species assumed): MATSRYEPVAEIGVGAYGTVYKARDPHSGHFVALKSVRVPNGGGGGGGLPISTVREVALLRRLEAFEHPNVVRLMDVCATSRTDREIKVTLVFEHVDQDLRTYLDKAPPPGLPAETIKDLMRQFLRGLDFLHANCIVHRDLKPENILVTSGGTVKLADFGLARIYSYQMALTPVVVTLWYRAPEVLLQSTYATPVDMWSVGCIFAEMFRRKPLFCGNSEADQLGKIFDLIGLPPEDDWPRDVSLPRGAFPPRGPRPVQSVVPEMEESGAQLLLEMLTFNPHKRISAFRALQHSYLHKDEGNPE
T1 sequence (P24385 whole entry partner, species assumed): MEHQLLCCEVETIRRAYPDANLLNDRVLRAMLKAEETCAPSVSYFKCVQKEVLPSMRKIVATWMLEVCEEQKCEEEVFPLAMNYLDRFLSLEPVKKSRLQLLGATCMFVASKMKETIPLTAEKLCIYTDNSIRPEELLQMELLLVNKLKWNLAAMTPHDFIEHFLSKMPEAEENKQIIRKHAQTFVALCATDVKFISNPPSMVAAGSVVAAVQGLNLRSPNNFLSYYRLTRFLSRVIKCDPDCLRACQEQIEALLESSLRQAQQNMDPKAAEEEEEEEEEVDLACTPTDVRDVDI
T3 sequence (P06493 whole entry): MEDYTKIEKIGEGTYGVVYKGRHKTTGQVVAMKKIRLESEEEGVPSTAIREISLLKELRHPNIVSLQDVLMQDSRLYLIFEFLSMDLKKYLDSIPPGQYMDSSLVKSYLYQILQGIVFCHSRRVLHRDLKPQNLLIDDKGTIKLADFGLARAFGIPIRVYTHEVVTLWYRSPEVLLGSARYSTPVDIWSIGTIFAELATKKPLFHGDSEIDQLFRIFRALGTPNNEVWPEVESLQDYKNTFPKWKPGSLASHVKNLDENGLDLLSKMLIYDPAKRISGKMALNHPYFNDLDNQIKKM
T3 sequence (P14635 whole entry partner): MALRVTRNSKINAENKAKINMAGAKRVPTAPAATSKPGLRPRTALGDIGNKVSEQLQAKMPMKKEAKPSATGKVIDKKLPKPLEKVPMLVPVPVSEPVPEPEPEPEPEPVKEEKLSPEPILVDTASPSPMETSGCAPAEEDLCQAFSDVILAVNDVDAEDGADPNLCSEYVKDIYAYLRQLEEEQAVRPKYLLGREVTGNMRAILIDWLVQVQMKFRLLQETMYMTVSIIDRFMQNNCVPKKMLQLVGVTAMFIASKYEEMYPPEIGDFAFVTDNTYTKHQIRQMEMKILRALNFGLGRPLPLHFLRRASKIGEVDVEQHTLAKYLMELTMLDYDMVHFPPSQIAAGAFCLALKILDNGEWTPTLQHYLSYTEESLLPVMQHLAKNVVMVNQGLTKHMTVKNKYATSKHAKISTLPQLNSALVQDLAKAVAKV

| SMILES | IC50 [1, 8] [µM] | IC50 [2, 9] [µM] | IC50 [3, 10] [µM] | IC50 [4, 11] [µM] | IC50 ([5]; three days) [µM] | IC50 ([6]; three days) [µM] | IC50 ([7]; three days) [µM] | melting point | IC50 [4, 12] [µM] | IC50 ([5]; 3 days) [µM] | IC50 ([6]; 3 days) [µM] | IC50 ([7]; 3 days) [µM] | IC50 ([1]; In Vitro Enzyme Assay, cyclin D1/cdk 4, read-out: CDK4 IC50) [µM] | IC50 ([2]; In Vitro Enzyme Assay, cyclin E/CDK2, read-out: CDK2 IC50) [µM] | IC50 ([3]; In Vitro Enzyme Assay, cyclin B/CDK1, read-out: CDK1 IC50) [µM] |
| --- | --- | --- | --- | --- | --- | --- | --- | --- | --- | --- | --- | --- | --- | --- | --- |
| Cl.O=C1NC(=O)c2ccc(Br)cc2C1=NNc1ccc(CN2CCCCC2)cc1 [Example 144, 6-Bromo-4-[(4-piperidin-1-ylmethyl-phenyl)-hydrazono]-4H-isoquinoline-1,3-dione Hydrochloride] | 1.9 | > 50 | > 50 | 3.2 | 1.5 | 3.2 | 3.2 | 298 to 299 °C (dec.) |  |  |  |  |  |  |  |
| O=C1NC(=O)c2ccc(I)cc2/C1=C/NCc1ccc(OC(F)F)c(O)c1 [Example 267] | 0.008 | 1.7 | 16.5 | 3.5 | 3.7 | 3.7 | 4.8 | 254 to 255 °C |  |  |  |  |  |  |  |
| CN1CCC(c2ccc(N/C=C3\C(=O)NC(=O)c4ccc(I)cc43)cc2)CC1 [Example 239, (4Z)-6-Iodo-4-({[4-(1-methylpiperidin-4-yl)phenyl]amino}methylene)isoquinoline-1,3(2H,4H)-dione] | 0.31 | 4.2 | > 50 | 7.9 | 2.5 | 7.7 | 4 | 215 to 216 °C |  |  |  |  |  |  |  |
| COc1cc2c(cc1-c1ccc(F)cc1)/C(=C/Nc1ccc(CN3CCCCC3)cc1)C(=O)NC2=O [Example 253, 6-(4-Fluoro-phenyl)-7-methoxy-4-[(4-piperidin-1-ylmethyl-phenylamino)-methylene]-4H-isoquinoline-1,3-dione] | 2.9 | > 50 | > 50 | 2.8 | 1.1 | 2.6 | 2 | 227 to 230 °C |  |  |  |  |  |  |  |
| COC1CCN(Cc2ccc(N/C=C3\C(=O)NC(=O)c4ccc(I)cc43)cc2)CC1 [Example 394, (4Z)-6-Iodo-4-[({4-[(4-methoxypiperidin-1-yl)methyl]phenyl}amino)methylene]isoquinoline-1,3(2H,4H)-dione] | 0.21 | > 50 | > 50 |  |  |  |  | 199 to 200 °C | 4.03 | 3.7 | 3.7 | 2.6 |  |  |  |
| Cc1ccc(C)n1-c1ccc2c(c1)/C(=C/Nc1ccc(N3CCN(C)CC3)cc1)C(=O)NC2=O [Example 226, (4Z)-6-(2,5-Dimethyl-1H-pyrrol-1-yl)-4-({[4-(4-methylpiperazin-1-′yl)phenyl]amino}methylene)isoquinoline-1,3(2H,4H)-dione] | 0.4 | 2.4 | > 50 | 3.3 | 2.4 | 4.4 | 5.2 | 264 to 265 °C |  |  |  |  |  |  |  |
| O=C1NCc2ccccc2C1=CNc1ccc(CN2CCCCC2)cc1 [Example 162, 4-[(4-Piperidin-1-ylmethyl-phenylamino)-methylene]-1,4-dihydro-2H-isoquinolin-3-one] | 18.6 | > 50 | > 50 | 23 | 4.4 | 9.2 | 3.9 | 188 to 189 °C (dec.) |  |  |  |  |  |  |  |
| O=C1NC(=O)c2ccc(-c3ccsc3)cc2C1=NNc1ccc(CN2CCCCC2)cc1 [Example 152, 4-[(4-Piperidin-1-ylmethyl-phenyl)-hydrazono]-6-thiophen-3-yl-4H-isoquinoline-1,3-dione] | 0.06 | > 50 | 36.3 | 3.4 | 2.8 | 6.6 | 6.2 | 164 to 168 °C (dec.) |  |  |  |  |  |  |  |
| O=C1NCc2ccccc2C1=CNc1ccc(CCN2CCCC2)cc1 [Example 170, 4-{[4-(2-Pyrrolidin-1-yl-ethyl)-phenylamino]-methylene}-1,4-dihydro-2H-isoquinolin-3-one] | 46.5 | > 50 | > 50 | 27 | 6.2 | 21 | 11 | 169 to 173 °C (dec.) |  |  |  |  |  |  |  |
| COc1coc(CNC=C2C(=O)NC(=O)c3ccc(-n4cccc4)cc32)cc1=O [Example 317, 4-{[(5-Methoxy-4-oxo-4H-pyran-2-ylmethyl)-amino]-methylene}-6-pyrrol-1-yl-4H-isoquinoline-1,3-dione] | 0.04 | > 50 | > 50 | 5.2 | 12 | 4.7 | 8.4 | 251 to 254 °C (dec.) |  |  |  |  |  |  |  |
| COC[C@@H]1CCCN1Cc1ccc(N/C=C2\C(=O)NC(=O)c3ccc(-c4ccco4)cc32)cc1 [Example 467, (4Z)-6-(2-Furyl)-4-{[(4-{[(2S)-2-(methoxymethyl)pyrrolidin-1-yl]methyl}phenyl)amino]methylene}isoquinoline-1,3(2H,4H)-dione] |  |  |  |  |  |  |  | 159 to 160 °C | 3.6 | 2.3 | 2.4 | 1.9 | 0.21 | > 50 | > 50 |
| C[C@@H]1CN(c2ccc(N/C=C3\C(=O)NC(=O)c4ccc(-c5ccsc5)cc43)cc2F)C[C@H](C)N1 [Example 325, (4Z)-4-[({4-[(3R,5S)-3,5-Dimethylpiperazin-1-yl]-3-fluorophenyl}amino)methylene]-6-thien-3-ylisoquinoline-1,3(2H,4H)-dione] | 0.14 | > 50 | 39.7 | 1.2 | 0.72 | 2.4 | 1 | 214 to 215 °C |  |  |  |  |  |  |  |
| COc1cnc(CN/C=C2\C(=O)NC(=O)c3ccc(Br)cc32)cc1O [Example 332, 6-Bromo-4-{[(4-hydroxy-5-methoxy-pyridin-2-ylmethyl)-amino]-methylene}-4H-isoquinoline-1,3-dione] | 0.12 | 2.2 | 21.3 | 0.54 | 3.5 | 1.3 | 3.2 | 209 to 211 °C (dec.) |  |  |  |  |  |  |  |
| COc1cc(CN/C=C2\C(=O)NC(=O)c3ccc(-c4ccsc4)cc32)cc(O)c1OC [Example 85] | 0.001 | > 50 | > 50 | 3.5 | 3.7 | 2.7 | 8.4 | 255 to 256 °C |  |  |  |  |  |  |  |
